pIC50: −log10 of the molar value.
Experiments:
α1 Receptor = assay: α1 receptor binding; details: read-out: α1 Receptor Binding IC50, Alpha1
serotonin uptake = assay: Serotonin uptake functional assay (rat cortex synaptosomes); assay type: biochemical; details: for pIC50: rat cortex synaptosomes, read-out: Monoamine Neuronal Transport IC50, 5-HT Uptake
Protocol: Characterization of serotonin uptake is performed using synaptosomes isolated in a 0.32 M sucrose buffer from a male Wistar rat cortex. The uptake of radiolabelled serotonin by synaptosomes (100 μg of proteins/point) is allowed by incubating them for 15 minutes at 37° C. in presence of test compounds and [3H]5-hydroxytryptamin (0.1 μCi/point). The experiment is performed in a deep well.
Synaptosomes and [3H]5-hydroxytryptamin are prepared in a Krebs buffer pH 7.4 containing 25 mM NaHCO3, 11 mM glucose and 50 μM ascorbic acid. This incubation buffer is oxygenated during 5 minutes before incubation. Basal control is incubated for 15 minutes at 4° C. in order to avoid any uptake. Following this incubation the uptake is stopped by filtration through an “unifilter 96-wells GFB” Packard plate washed with Krebs buffer containing 25 mM NaHCO3 in order to eliminate the free [3H]5-hydroxytrptamin. The radioactivity associated to the synaptosomes retained onto the unifilter corresponding to the uptake is then measured with a microplate scintillation counter Topcount, Packard using a scintillation liquid microscint 0, Packard.
[See Perovics and Müller “Pharmacological profile of hypericum extract: effect on serotonin uptake by postsynaptic receptors”, Arzeim.

norepinephrine uptake = assay: Norepinephrine uptake functional assay (rat hypothalamus synaptosomes); assay type: biochemical; details: read-out: Monoamine Neuronal Transport IC50, NE uptake
Protocol: Characterization of norepinephrine uptake is performed using synaptosomes isolated at Cerep in a 0.32 M sucrose buffer from a male Wistar rat hypothalamus. The uptake of radiolabeled norepinephrine by synaptosomes (100 μg of proteins/point) is allowed by incubating them for 20 minutes at 37° C. in presence of test compounds and [3H]-norepinephrine (0.1 μCi/point). The experiment is performed in a deep well.
Synaptosomes and [3H]-norepinephrine are prepared in a Krebs buffer pH 7.4 containing 25 mM NaHCO3, 11 mM glucose and 50 μM ascorbic acid. This incubation buffer is oxygenated during 5 minutes before incubation. Basal control is incubated for 20 minutes at 4° C. in order to avoid any uptake. Following this incubation the uptake is stopped by filtration through an “unifilter 96-wells GFB” Packard plate washed with Krebs buffer containing 25 mM NaHCO3 in order to eliminate the free [3H]-norepinephrine. The radioactivity associated to the synaptosomes retained onto the unifilter corresponding to the uptake is then measured with a microplate scintillation counter Topcount, Packard using a scintillation liquid microscint 0, Packard.
[See Perovics and Müller, op.cit. (1995).]

CYP1A2 = biological target: T1, CYP1A2 (Homo sapiens, UniProt P05177); assay: CYP450 inhibition, CYP1A2; assay type: in vitro ADME; details: parameter and unit inferred
T1 sequence (P05177 1-516): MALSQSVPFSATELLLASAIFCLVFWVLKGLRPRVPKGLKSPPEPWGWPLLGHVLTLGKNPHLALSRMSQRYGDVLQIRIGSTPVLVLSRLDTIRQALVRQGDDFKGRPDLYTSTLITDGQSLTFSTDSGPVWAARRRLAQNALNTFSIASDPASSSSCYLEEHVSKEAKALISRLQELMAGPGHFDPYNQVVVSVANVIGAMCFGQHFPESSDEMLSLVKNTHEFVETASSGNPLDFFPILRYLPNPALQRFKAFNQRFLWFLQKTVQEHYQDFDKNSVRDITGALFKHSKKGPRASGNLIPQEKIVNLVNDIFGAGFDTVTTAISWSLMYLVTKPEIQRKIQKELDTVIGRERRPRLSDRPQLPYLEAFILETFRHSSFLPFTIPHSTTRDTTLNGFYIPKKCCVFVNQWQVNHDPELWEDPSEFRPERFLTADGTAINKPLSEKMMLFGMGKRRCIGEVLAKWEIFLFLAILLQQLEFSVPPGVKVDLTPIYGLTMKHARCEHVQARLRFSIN

CYP3A4 = CYP3A4 (Homo sapiens, UniProt P08684); assay: CYP450 inhibition, CYP3A4 BZRes; assay type: in vitro ADME; details: parameter and unit inferred
Human D2 Receptor = biological target: T2, Human D2 Receptor (Homo sapiens, UniProt P14416); assay: Human D2 receptor binding ([3H]spiperone); details: comment on Table 1
T2 construct: expressed in transfected cells; host or cells: A9L cells
Protocol: (§1) Dopamine and serotonin receptor binding assays were performed in a standard manner with the incubation of membrane preparations in an assay buffer in the presence of a known radioactively labeled specific ligand for the receptor subtypes. Nonspecific binding was determined by assessing binding in the presence of excess ligand. Specific binding was measured as the total labeled ligand bound after the nonspecific binding was subtracted. The effect of the tested agents was measured by determining the competition for the receptor binding across a concentration range. Subsequently, an IC50 was determined for the agents tested. More specific details are provided below for several of the assays performed.
Aliquots of transfected A9L cell membrane preparations corresponding to 20-40 μg protein are incubated for 60 min at 22° C. in 250 μL of 50 mM Tris-HCl buffer (pH 7.4) containing 120 mM NaCl, 5 mM KCl, 5 mM MgCl2, 1 mM EDTA, 0.3 nM [^3H]spiperone and increasing concentrations of the competing drugs. Nonspecific binding is determined in the presence of 10 μM (+)butaclamol. […] Bound radioactivity is measured with a scintillation counter (Topcount, Packard) using a liquid-scintillation cocktail (Microscint 0, Packard). […]

Human 5-HT2A Receptor = biological target: T3, Human 5-HT2A Receptor (Homo sapiens, UniProt P28223); assay: Human 5-HT2A receptor binding ([3H]ketanserin); details: comment on Table 2
T3 construct: expressed in transfected cells; host or cells: CHO cells
Protocol: as §1
Nonspecific binding is determined in the presence of 1 μM ketanserin. […] Bound radioactivity is measured with a scintillation counter (Topcount, Packard) using a liquid scintillation cocktail (Microscint 0, Packard). The reference compound for this assay is ketanserin.

CYP2C19 = CYP2C19 (Homo sapiens, UniProt P33261); assay: CYP450 inhibition, CYP2C19; assay type: in vitro ADME; details: parameter and unit inferred
[1] = immediate-release tablets; first-pass metabolism; cited from earlier work

T2 sequence (P14416 whole entry): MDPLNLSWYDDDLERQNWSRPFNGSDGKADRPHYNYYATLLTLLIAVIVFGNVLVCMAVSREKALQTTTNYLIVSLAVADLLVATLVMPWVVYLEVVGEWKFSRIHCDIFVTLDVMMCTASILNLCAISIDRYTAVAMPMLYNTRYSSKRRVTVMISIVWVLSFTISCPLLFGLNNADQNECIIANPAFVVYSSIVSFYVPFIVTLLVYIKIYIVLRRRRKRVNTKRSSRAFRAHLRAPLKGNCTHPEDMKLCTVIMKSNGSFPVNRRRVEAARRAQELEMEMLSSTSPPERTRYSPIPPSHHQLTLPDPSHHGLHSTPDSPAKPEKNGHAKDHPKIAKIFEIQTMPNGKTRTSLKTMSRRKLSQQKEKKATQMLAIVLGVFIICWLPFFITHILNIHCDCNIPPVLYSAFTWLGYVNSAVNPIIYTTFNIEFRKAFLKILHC
CYP3A4, sequence (P08684 whole entry): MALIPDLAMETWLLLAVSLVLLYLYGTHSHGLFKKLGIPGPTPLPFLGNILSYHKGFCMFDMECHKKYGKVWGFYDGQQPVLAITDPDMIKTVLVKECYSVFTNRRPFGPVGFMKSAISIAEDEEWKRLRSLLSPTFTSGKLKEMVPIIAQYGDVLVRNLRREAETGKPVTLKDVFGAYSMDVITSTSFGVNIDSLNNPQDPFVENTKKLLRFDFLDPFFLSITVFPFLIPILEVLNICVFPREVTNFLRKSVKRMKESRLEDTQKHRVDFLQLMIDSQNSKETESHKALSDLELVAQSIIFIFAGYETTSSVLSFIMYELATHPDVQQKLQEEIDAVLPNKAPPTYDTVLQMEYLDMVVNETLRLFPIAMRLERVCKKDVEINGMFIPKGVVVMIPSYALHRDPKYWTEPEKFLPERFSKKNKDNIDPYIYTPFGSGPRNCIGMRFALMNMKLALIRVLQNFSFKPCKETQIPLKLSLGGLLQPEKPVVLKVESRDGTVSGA
CYP2C19, sequence (P33261 whole entry): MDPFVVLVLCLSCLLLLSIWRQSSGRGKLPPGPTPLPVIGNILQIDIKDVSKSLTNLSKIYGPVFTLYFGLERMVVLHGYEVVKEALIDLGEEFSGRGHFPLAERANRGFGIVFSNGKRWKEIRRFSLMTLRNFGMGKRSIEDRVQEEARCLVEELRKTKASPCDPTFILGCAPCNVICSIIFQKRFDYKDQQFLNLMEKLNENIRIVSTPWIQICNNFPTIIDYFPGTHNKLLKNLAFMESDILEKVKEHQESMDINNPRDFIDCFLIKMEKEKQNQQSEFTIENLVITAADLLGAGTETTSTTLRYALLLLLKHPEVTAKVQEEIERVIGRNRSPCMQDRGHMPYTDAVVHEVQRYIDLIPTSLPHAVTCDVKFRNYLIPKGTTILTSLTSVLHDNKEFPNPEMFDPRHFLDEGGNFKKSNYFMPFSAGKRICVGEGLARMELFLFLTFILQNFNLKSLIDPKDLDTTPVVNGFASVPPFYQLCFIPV
T3 sequence (P28223 whole entry): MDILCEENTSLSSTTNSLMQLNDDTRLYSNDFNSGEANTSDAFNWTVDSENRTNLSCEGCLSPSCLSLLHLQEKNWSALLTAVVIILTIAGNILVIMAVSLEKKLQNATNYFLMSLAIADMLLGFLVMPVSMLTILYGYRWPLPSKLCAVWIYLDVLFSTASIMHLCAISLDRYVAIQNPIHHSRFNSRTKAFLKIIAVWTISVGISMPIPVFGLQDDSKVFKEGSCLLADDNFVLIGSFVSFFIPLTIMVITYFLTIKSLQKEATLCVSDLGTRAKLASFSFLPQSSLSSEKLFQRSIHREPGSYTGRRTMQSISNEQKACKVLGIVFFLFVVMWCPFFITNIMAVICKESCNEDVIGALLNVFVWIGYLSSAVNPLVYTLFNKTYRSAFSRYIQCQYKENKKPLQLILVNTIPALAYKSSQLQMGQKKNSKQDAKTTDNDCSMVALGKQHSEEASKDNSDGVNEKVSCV

pIC50 (α1 Receptor)	pIC50 (serotonin uptake)	pIC50 (norepinephrine uptake)	pIC50 (CYP1A2)	pIC50 (CYP3A4)	Affinity for the D2 receptor (in words) (Human D2 Receptor)	Affinity for 5HT2A receptors (in words) (Human 5-HT2A Receptor)	pIC50 (CYP2C19)	SMILES	Activity in inhibiting serotonin uptake (in words) (serotonin uptake; comment on Table 4)	Bioavailability [1]
6.42	6.30	6.00						CC(O)c1nn(CCCN2CCN(c3cccc(Cl)c3)CC2)c(=O)n1CCOc1ccccc1 (racemic) [(RS)—OH, hydroxynefazodone]		
6.44	6.19	5.92	< 3.70	< 3.70				C[C@@H](O)c1nn(CCCN2CCN(c3cccc(Cl)c3)CC2)c(=O)n1CCOc1ccccc1 [(R)—OH, (R)-Hydroxynefazodone]		
6.38	6.10		< 3.70		excellent affinity	highest affinity	< 3.70	C[C@H](O)c1nn(CCCN2CCN(c3cccc(Cl)c3)CC2)c(=O)n1CCOc1ccccc1 [(S)—OH]	least active enantiomer	

SMILES	pIC50 (α1 Receptor)	pIC50 (serotonin uptake)	pIC50 (norepinephrine uptake)	pIC50 (CYP1A2)	pIC50 (CYP3A4)	Affinity for the D2 receptor (in words) (Human D2 Receptor)	Affinity for 5HT2A receptors (in words) (Human 5-HT2A Receptor)	pIC50 (CYP2C19)	Activity in inhibiting serotonin uptake (in words) (serotonin uptake; comment on Table 4)	Bioavailability [1]
CCc1nn(CCCN2CCN(c3cccc(Cl)c3)CC2)c(=O)n1CCOc1ccccc1 [Nefazodone, 2-[3-[4-(3-chlorophenyl)-1-piperazinyl]-propyl-]5-ethyl-2,4-dihydro-4-(2-phenoxy-ethyl)-3H-1,2,4-triazol-3-one, reference compound]	6.51	6.70	5.92	< 3.70						approximately 20%

Source: patent US20030083338A1, “Compositions and methods for management of serotonin-mediated disorders” (priority 2001, published 2003)
